Publication PMC6270455, “Antibacterial and Herbicidal Activity of Ring-Substituted 3-Hydroxynaphthalene-2-carboxanilides” (Molecules, 2013)
In brackets after ≈: the same amount, converted by molar mass. Like-named read-outs stand apart in the source and are kept apart here.

Legend:
M. kansasii DSM 44162 = test: In vitro antimycobacterial evaluation, broth dilution micro-method; assay type: cell-based; settings: Mycobacterium kansasii, DSM44162, 168 h, Middlebrook 7H9, 7 days, 37 °C
[1] = Lipophilicity determination by RP-HPLC (capacity factor, log k); assay type: physicochemical; settings: RP-HPLC capacity factor logarithm; C18 column, MeOH 60% / H2O 40%, 40 °C
Procedure: Lipophilicity of the studied compounds was determined by RP-HPLC as capacity factor logarithm (log k) and calculated as log P using ACD/Percepta software. […] It is important to note that lipophilicity also has a great impact on target and off-target interactions, as mentioned below.
A HPLC system Agilent 1200 equipped with DAD detector (Agilent, Santa Clara, CA, USA) was used. A chromatographic column Symmetry® C18 5 μm, 4.6 × 250 mm, Part No. WAT054275, (Waters Corp., Milford, MA, USA) was used. The HPLC separation process was monitored and evaluated by EZChrom Elite software ver. 3.3.2 (Agilent). Isocratic elution by a mixture of MeOH p.a. (60%) and H2O-HPLC Mili-Q grade (40%) as a mobile phase was used. The total flow of the column was 1.0 mL/min, injection 20 μL, column temperature 40 °C and sample temperature 10 °C. The detection wavelength 210 nm was chosen. The KI methanolic solution was used for the dead time (tD) determination. Retention times (tR) were measured in minutes. The capacity factors k were calculated according to formula k = (tR − tD)/tD, where tR is the retention time of the solute, whereas tD denotes the dead time obtained using an unretained analyte. Log k, calculated from the capacity factor k, is used as the lipophilicity index converted to log P scale.

[2] = tested on: human monocytic leukemia THP-1 cells; assay type: cell-based; settings: 24 h
Procedure: Human monocytic leukemia THP-1 cells were used for in vitro toxicity assay. Cells were obtained from the European Collection of Cell Cultures (ECACC, Salisbury, UK) and routinely cultured in RPMI medium supplemented with 10% fetal bovine serum, 2% L-glutamine, 1% penicillin and streptomycin at 37 °C with 5% CO2. Cytotoxicity was determined using a WST-1 assay kit (Roche Diagnostics, Mannheim, Germany) according to the manufacturer’s instructions. The tested compounds were dissolved in DMSO and added in five increasing concentrations (0.37, 1.1, 3.3, 10, and 30 μmol/L) to the cell suspension in the culture medium. Subsequently, the cells were incubated for 24 h at 37 °C with 5% CO2. WST-1 assays conducted in triplicates were performed as previously described. The median lethal dose values, LD50, were deduced through the production of a dose-response curve. All data were evaluated using GraphPad Prism 5.00 software (GraphPad Software, San Diego, CA, USA).

[3] = tested on: photosynthetic electron transport (PET) in spinach chloroplasts; test: Inhibition of photosynthetic electron transport (PET) in spinach chloroplasts (DCPIP photoreduction); assay type: biochemical, Spinacia oleracea L.
Procedure: Chloroplasts were prepared from spinach (Spinacia oleracea L.) according to Masarovicova and Kralova. The inhibition of photosynthetic electron transport (PET) in spinach chloroplasts was determined spectrophotometrically (Genesys 6, Thermo Scientific), using an artificial electron acceptor 2,6-dichlorophenol-indophenol (DCIPP) according to Kralova et al., and the rate of photosynthetic electron transport was monitored as a photoreduction of DCPIP. The measurements were carried out in phosphate buffer (0.02 mol/L, pH 7.2) containing sucrose (0.4 mol/L), MgCl2 (0.005 mol/L) and NaCl (0.015 mol/L). The chlorophyll content was 30 mg/L in these experiments and the samples were irradiated (~100 W/m^2 with 10 cm distance) with a halogen lamp (250 W) using a 4 cm water filter to prevent warming of the samples (suspension temperature 22 °C). The studied compounds were dissolved in DMSO due to their limited water solubility. […] The inhibitory efficiency of the studied compounds was expressed by IC50 values, i.e., by molar concentration of the compounds causing 50% decrease in the oxygen evolution rate relative to the untreated control.

[4] = tested on: Mycobacterium marinum CAMP 5644; test: In vitro antimycobacterial evaluation, broth dilution micro-method; assay type: cell-based; settings: CAMP5644, 504 h, Middlebrook 7H9, 21 days, 28 °C
[5] = tested on: methicillin-resistant Staphylococcus aureus (MRSA) 63718; test: In vitro antibacterial susceptibility testing, broth dilution micro-method; assay type: cell-based; settings: Staphylococcus aureus; clinical isolate MRSA 63718; MH broth, 24 h, 37 °C
Procedure: (§1) The synthesized compounds were evaluated for in vitro antibacterial activity against representatives of multidrug-resistant bacteria, clinical isolates of methicillin-resistant Staphylococcus aureus (MRSA) 63718, SA 630 and SA 3202 that were obtained from the National Institute of Public Health, Prague, Czech Republic. Staphylococcus aureus ATCC 29213 was used as a reference and quality control strain. Ampicillin (Sigma-Aldrich) was used as the standard. Prior to testing, each strain was passaged onto nutrient agar (Oxoid, Hampshire, UK) with 5% of bovine blood, and bacterial inocula were prepared by suspending a small portion of bacterial colony in sterile phosphate buffered saline (pH 7.2–7.3). The cell density was adjusted to 0.5 McFarland units using a densitometer (Densi-La-Meter, LIAP, Riga, Latvia). The final inoculum was made by 1:20 dilution of the suspension with the Mueller-Hinton broth (MH broth). […] The broth dilution micro-method modified according to NCCLS guidelines in MH broth was used to determine the minimum inhibitory concentration (MIC). Drug-free controls, sterility controls and controls consisted of MH broth and DMSO alone were included. The determination of results was performed visually after 24 h of static incubation in the darkness at 37 °C in an aerobic atmosphere. The MICs were defined as the lowest concentration of the compound at which no visible bacterial growth was observed.

[6] = tested on: Staphylococcus aureus ATCC 29213; test: as above; assay type: cell-based; settings: ATCC29213, MH broth, 24 h, 37 °C
Procedure: as §1

[7] = tested on: methicillin-resistant S. aureus SA 3202; test: as above; assay type: cell-based, Staphylococcus aureus; settings: Staphylococcus aureus; clinical isolate MRSA SA 3202; MH broth, 24 h, 37 °C
Procedure: as §1

[8] = tested on: methicillin-resistant S. aureus SA 630; test: as above; assay type: cell-based, Staphylococcus aureus; settings: Staphylococcus aureus; clinical isolate MRSA SA 630; MH broth, 24 h, 37 °C
Procedure: as §1

[9] = tested on: human monocytic leukemia THP-1 cells; settings: assessed in this line formerly; cited from earlier work
[10] = phosphate buffer pH 7.2, DCPIP acceptor

| SMILES | MIC (M. kansasii DSM 44162) [µM] | log k [1] | IC50 [3, 10] [µM] | MIC [4] [µM] | MIC [5] [µM] | MIC [6] [µM] | MIC [7] [µM] | MIC [8] [µM] | IC50 ([3]; as quoted in the chlorophyll a fluorescence discussion) [µM] | LD50 [2] [µmol/L] | LD50 [9] [µmol/L] |
| --- | --- | --- | --- | --- | --- | --- | --- | --- | --- | --- | --- |
| O=C(Nc1ccccc1[N+](=O)[O-])c1cc2ccccc2cc1O [compound 8a, 3-Hydroxy-N-(2-nitrophenyl)naphthalene-2-carboxamide] | 830 (≈ 256 µg/mL) | 0.8710 | 107 | 830 (≈ 256 µg/mL) | > 830 | > 830 | 415 (≈ 128 µg/mL) | 415 (≈ 128 µg/mL) |  |  |  |
| CC[C@@]1(O)C(=O)OCc2c1cc1n(c2=O)Cc2cc3ccccc3nc2-1 [camptothecin] |  |  |  |  |  |  |  |  |  |  | 0.20 ± 0.07 |
| O=C(Nc1ccccc1C(F)(F)F)c1cc2ccccc2cc1O [compound 7a, 3-Hydroxy-N-(2-trifluoromethylphenyl)naphthalene-2-carboxamide] | 193 (≈ 63.9 µg/mL) | 0.8762 | 105 | 193 (≈ 63.9 µg/mL) | > 773 | > 773 | 97 (≈ 32.1 µg/mL) | > 773 | 105 | 28.6 ± 0.5 |  |

Continued, in another order:

| MIC (M. kansasii DSM 44162) [µM] | log k [1] | IC50 [3, 10] [µM] | MIC [4] [µM] | MIC [5] [µM] | MIC [6] [µM] | MIC [7] [µM] | MIC [8] [µM] | IC50 ([3]; as quoted in the chlorophyll a fluorescence discussion) [µM] | SMILES | LD50 [2] [µmol/L] | LD50 [9] [µmol/L] |
| --- | --- | --- | --- | --- | --- | --- | --- | --- | --- | --- | --- |
| 415 (≈ 128 µg/mL) | 0.8143 | 16.9 | > 830 | > 830 | > 830 | > 830 | > 830 |  | O=C(Nc1cccc([N+](=O)[O-])c1)c1cc2ccccc2cc1O [compound 8b, 3-Hydroxy-N-(3-nitrophenyl)naphthalene-2-carboxamide] | 2.5 ± 0.9 |  |
| 13 (≈ 4.01 µg/mL) | 0.9175 | 188 | > 830 | > 830 | > 830 | > 830 | > 830 |  | O=C(Nc1ccc([N+](=O)[O-])cc1)c1cc2ccccc2cc1O [compound 8c, 3-Hydroxy-N-(4-nitrophenyl)naphthalene-2-carboxamide] |  |  |
